13 compounds from ChEMBL document CHEMBL1149361, “Synthesis, biochemical evaluation and rationalisation of the inhibitory activity of a range of 4-substituted phenyl alkyl imidazole-based inhibitors of the enzyme complex 17alpha-hydroxylase/17,20-lyase (P450(17alpha))” (Bioorg Med Chem Lett, 2006) can be followed below.

Assay [1] addresses T1, Steroid 17-alpha-hydroxylase/17,20 lyase (Rattus norvegicus, UniProt P11715).
T1 sequence (P11715 whole entry): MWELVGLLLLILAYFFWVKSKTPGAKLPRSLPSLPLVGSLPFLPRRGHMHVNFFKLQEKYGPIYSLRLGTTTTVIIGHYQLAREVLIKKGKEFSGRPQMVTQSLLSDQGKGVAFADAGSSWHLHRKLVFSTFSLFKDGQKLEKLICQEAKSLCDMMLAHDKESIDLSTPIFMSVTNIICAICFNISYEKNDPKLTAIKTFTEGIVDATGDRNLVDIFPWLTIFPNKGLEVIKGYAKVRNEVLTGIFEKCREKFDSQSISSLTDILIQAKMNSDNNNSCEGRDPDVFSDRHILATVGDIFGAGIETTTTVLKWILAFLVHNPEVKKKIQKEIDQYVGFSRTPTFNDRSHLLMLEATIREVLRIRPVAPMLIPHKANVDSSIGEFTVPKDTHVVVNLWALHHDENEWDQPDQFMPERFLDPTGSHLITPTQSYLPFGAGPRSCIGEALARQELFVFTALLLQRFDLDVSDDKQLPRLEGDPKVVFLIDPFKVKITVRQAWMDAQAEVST
Briefly: Inhibition of rat testis 17-alpha-hydroxylase component of P450-17alpha at 10 uM.

Assay [2] has as its target T1, Steroid 17-alpha-hydroxylase/17,20 lyase. Briefly: Inhibition of rat testis 17-alpha-hydroxylase component of P450-17alpha.
For assay [3] the target is unchanged. The assay can be described thus: Inhibition of rat testis 17,20 lyase component of P450-17alpha at 10 uM.
For assay [4] the target is unchanged. Briefly: Inhibition of rat testis 17,20 lyase component of P450-17alpha.

Broadly, the inhibition is the change of the read-out against control, counted positive when it falls. As a reminder, the IC50 is the concentration that inhibits the measured activity by half.

As for `Brc1ccc(Cn2ccnc2)cc1`, the inhibition at 10 µM in assay [1] was determined as 49.3%; in assay [3] it was 76.2%. Also, the IC50 was determined as 16.6 µM in assay [2] and 2.85 µM in assay [4].
The matching figures for `Clc1ccc(Cn2ccnc2)cc1`: 45.7%, 73.7%, 29.8 µM and 4.94 µM.
As to `Brc1ccc(CCCn2ccnc2)cc1`, the inhibition at 10 µM in assay [1] is 70.2%; in assay [3], 86.3%. Besides, the IC50 in assay [2] was determined as 2.95 µM; in assay [4], 0.33 µM.
The matching figures for `Fc1ccc(Cn2ccnc2)cc1`: 20.5%, 51%, 96.5 µM and 11.3 µM.
Consider `Fc1ccc(CCn2ccnc2)cc1`, for which the inhibition at 10 µM in assay [1] amounted to 22.5%; in assay [3], 45.1%. Half-maximal inhibition in assay [2] (IC50) was put at 120 µM.
Turning to `c1ccc(CCn2ccnc2)cc1`, the inhibition at 10 µM was found to be 10.6% in assay [1] and 6.36% in assay [3].
As for `Brc1ccc(CCn2ccnc2)cc1`, the inhibition at 10 µM is 37.5% in assay [1] and 61.5% in assay [3]. This compound returned an IC50 in assay [2] of 30.7 µM.
Consider `Clc1ccc(CCn2ccnc2)cc1`, for which the inhibition at 10 µM in assay [1] is 28.4%; in assay [3], 57.4%. In assay [2], this compound displayed an IC50 of 49.6 µM.
As to `c1ccc(CCCn2ccnc2)cc1`, the values for the inhibition at 10 µM in assay [1] and in assay [3] were 23.4% and 40%, respectively. Besides, the IC50 in assay [2] was 30.9 µM; in assay [4], 6.14 µM.
On to `Fc1ccc(CCCn2ccnc2)cc1`, for which the inhibition at 10 µM was determined as 40.8% in assay [1] and 73.2% in assay [3]. Also, the figures for the IC50 in assay [2] and in assay [4] were 27.8 µM and 1.96 µM, respectively.
In the case of `Clc1ccc(CCCn2ccnc2)cc1`, the inhibition at 10 µM in assay [1] worked out at 71%; in assay [3], 80.8%. For the same compound, the IC50 in assay [2] amounted to 5.85 µM; in assay [4], 0.55 µM.
For `c1ccc(Cn2ccnc2)cc1`, in that order: 13.5%, 12.6%, 154 µM and 50.9 µM.
Turning to `CC(=O)N1CCN(c2ccc(OCC3COC(Cn4ccnc4)(c4ccc(Cl)cc4Cl)O3)cc2)CC1` (stereo not given) [KETOCONAZOLE], the inhibition at 10 µM in assay [1] is 61.5%; in assay [3] it was 78.7%.
